{"source": "paper PMC4658182", "about": "“The Synthetic Antimicrobial Peptide 19-2.5 Interacts with Heparanase and Heparan Sulfate in Murine and Human Sepsis” (PLoS ONE, 2015)", "key": {"[1]": {"tested_on": "heparanase", "assay": "Plasma heparanase activity, CLP septic mice", "format": "in vivo, murine", "settings": "CLP-mice (NMRI), 24 h after CLP; peptide i.v. infusion 20 μg/ml, 100 μl/h vs NaCl 0.9%; n = 6 per group; Fig 3A", "experimental": "Heparanase activity in human and murine plasma was quantified using the commercial available Heparanase Assay Kit (No.: Ra001-BE-K, AMS Biotechnology, Oxon, United Kingdom) according to the manufacturer’s instructions.\n(§1) The murine model of polymicrobial sepsis was divided into three steps as described before. Briefly, in a first step 12 NMRI mice underwent a catheterization procedure under general (isoflurane 1% to 2% in oxygen/air mix with a FiO2 of 0.3) and local (0.2 ml lidocaine 2%) anesthesia. A central vein catheter (PE-tube, self-made) was implanted in the jugular vein. After further local infiltration with lidocaine, the neck was closed by single suture. To prevent hypothermia all animals were kept on a heating pad throughout the surgical procedure. Mice were transferred back into the cage to rest for 48h. The i.v.-line was connected to the syringe pump at a rate of 100 μl/h (NaCl 0.9%).\nIn a second step, general and local anesthesia for cecal ligature and puncture (CLP) was performed as described above. The animal were transferred to the cage and reconnected with the i.v.-line. Depending on the group, peptide 19–2.5 infusion (20 μg/ml, 100 μl/h) or NaCl 0.9% infusion (100 μl/h) was started.\nFinally, in a third step all animals were killed 24 h after CLP. Therefore, the animals were anesthetized as described above, brought to a prone position and the abdomen and thorax were opened. […]"}, "[2]": {"tested_on": "heparanase", "assay": "Plasma heparanase level (ELISA), human plasma, peptide added ex vivo", "format": "biochemical", "settings": "20 μg/ml peptide ex vivo, Fig 1B, n.s.", "experimental": "As described before, we used plasma from 18 adult individuals within 24 hours after presentation with septic shock, according to the ACCP/SCCM definition after written informed consent of patients or their legal representative. Individuals below 18 years were excluded. Furthermore, we used plasma from healthy human donors after written informed consent (n = 10). No personal or identifying information was collected from study participants. All samples are stored in the RWTH centralized Biomaterial Database (RWTH cBMB) of the University Hospital RWTH Aachen. The local ethics committee (University Hospital RWTH Aachen, EK 206_09) approved this study before inclusion of the first individual.\nHeparanase levels in human and murine plasma were measured using a commercial ELISA kit (No.: E03H0100, AMS Biotechnology, Oxon, United Kingdom) according to the manufacturer’s instructions. The ELISA´s detection range is 1.0 ng/ml– 5000 ng/ml."}, "[3]": {"parameters": "method as in PMID 22457281", "settings": "after incubating HS with peptide 19–2.5; cited from earlier work"}, "[4]": {"tested_on": "pro-inflammatory cytokines; CD14", "settings": "CLP-mice, cited from earlier work", "excerpt": "Several studies report an up to 10-fold increase of heparanase expression after stimulation with pro-inflammatory cytokines. […] Accordingly, we detected organ-specific differences of heparanase levels that m ..."}, "[5]": {"tested_on": "murine cells", "settings": "cited from earlier work", "excerpt": "The synthetic antimicrobial peptide 19–2.5 belongs to the class of synthetic anti-lipopolysaccharide peptides (SALP = synthetic anti-LPS peptides). […] Thus, we investigated the impact of peptide 19–2.5 on levels of circulating HS-fragments in vivo. […] We postulate two ways by which peptide 19–2.5 reduces levels of circulating HS-fragments in mice: […]"}, "[6]": {"assay": "Circulating HS-fragments in plasma (ELISA), CLP septic mice", "format": "in vivo, murine", "settings": "CLP-mice (NMRI), 24 h after CLP, peptide i.v. infusion 20 μg/ml, 100 μl/h vs NaCl 0.9%, n = 6 per group, Fig 4, ***p < 0.0001", "experimental": "Levels of circulating HS-fragments in murine plasma were measured using a commercial ELISA kit (No.: E0623Ge, AMS Biotechnology, Oxon, United Kingdom) according to the manufacturer’s instructions. Circulating HS-fragments in plasma were defined by the sum of the HS derived disaccharides obtained after enzymatic cleavage by heparanase. Due to the ELISA´s detection range of 4.69 ng/ml– 300 ng/ml samples were diluted 1:30 in physiological saline (0.9%). The sensitivity of the ELISA is 1.17ng/ml.\nas §1\nIn a second step, general and local anesthesia for cecal ligature and puncture (CLP) was performed as described above. The animal were transferred to the cage and reconnected with the i.v.-line. […]"}}}
{"substance": "peptide 19–2.5: synthetic antimicrobial peptide 19–2.5 belongs to the class of synthetic anti-lipopolysaccharide peptides (SALP = synthetic anti-LPS peptides)", "values": [{"measurement": "plasma heparanase activity vs untreated control", "setting": "[1]", "value": "significant lower heparanase activity compared to untreated control animals"}, {"measurement": "plasma heparanase level after ex vivo addition of peptide", "setting": "[2]; plasma of healthy human volunteers (n = 10)", "value": "did not influence heparanase levels"}, {"measurement": "plasma heparanase level after ex vivo addition of peptide", "setting": "[2]; plasma of septic shock patients (n = 18)", "value": "did not influence heparanase levels"}, {"measurement": "effect on peptide secondary structure and on HS hydration and sulfation status", "setting": "[3]", "value": "alteration of the peptide’s secondary structure and a characteristic change in the hydration and sulfation status of HS"}, {"measurement": "mRNA expression of CD14", "setting": "[4]; differences between organs", "value": "decreases mRNA expression of CD14"}, {"measurement": "levels of pro-inflammatory cytokines", "setting": "[4]", "value": "decreases levels of pro-inflammatory cytokines in CLP-mice"}, {"measurement": "inflammatory response in murine cells stimulated with HS-fragments", "setting": "[5]; stimulated with HS-fragments in vitro", "value": "able to decrease the inflammatory response in murine cells stimulated with HS-fragments in vitro"}, {"measurement": "inflammatory response in murine cells stimulated with PAMPs and DAMPs", "setting": "[5]; stimulated with both PAMPs and DAMPs", "value": "able to decrease the inflammatory response in murine cells stimulated with both PAMPs and DAMPs"}, {"measurement": "levels of circulating HS-fragments in plasma vs untreated control", "setting": "[6]", "value": "significantly decreased in CLP-mice treated with peptide 19–2.5 compared to untreated control animals"}]}
